This passage reports IC50 results from ChEMBL document CHEMBL1123236, “Cardiac glycosides. 7. Sugar stereochemistry and cardiac glycoside activity” (J Med Chem, 1986).

For the assay, the target named is Sodium/potassium-transporting ATPase. The experiment in a line: Inhibition of hog kidney Na+, K+-dependent ATPase. Type of assay: protein-complex assay, Sus scrofa. The note with it: read-out: I50.
Turning to `C[C@]12CC[C@H](O[C@H]3O[C@H](CO)[C@@H](O)[C@H](O)[C@H]3O)C[C@H]1CC[C@@H]1[C@@H]2CC[C@]2(C)[C@@H](C3=CC(=O)OC3)CC[C@]12O` (stereo in doubt; 4a), the IC50 came out at 60.3 nM. Regarding `C[C@@H]1O[C@@H](O[C@H]2CC[C@@]3(C)[C@H](CC[C@@H]4[C@@H]3CC[C@]3(C)[C@@H](C5=CC(=O)OC5)CC[C@]43O)C2)[C@H](O)[C@H](O)[C@H]1O` (stereo in doubt; form 1), the IC50 is 4.79 nM.

For the compound `CC12CCC(O[C@H]3O[C@H](CO)[C@H](O)[C@H](O)[C@H]3O)CC1CCC1C2CC[C@]2(C)C(C3=CC(=O)OC3)CCC12O` (stereo in doubt; form 1), the IC50 was 64.5 nM. Consider `CC12CCC(O[C@H]3O[C@H](CO)[C@H](O)[C@H](O)[C@H]3O)CC1CCC1C2CC[C@]2(C)C(C3=CC(=O)OC3)CCC12O` (stereo in doubt; form 2), for which the IC50 worked out at 17.8 nM. Take `C[C@]12CC[C@H](O[C@@H]3O[C@@H](CO)[C@@H](O)[C@H](O)[C@@H]3O)C[C@H]1CC[C@@H]1[C@@H]2CC[C@]2(C)[C@@H](C3=CC(=O)OC3)CC[C@]12O` (stereo in doubt; form 2): the IC50 was found to be 10.7 nM. Regarding `C[C@]12CC[C@H](O[C@@H]3O[C@@H](CO)[C@H](O)[C@@H](O)[C@H]3O)C[C@H]1CC[C@@H]1[C@@H]2CC[C@]2(C)[C@@H](C3=CC(=O)OC3)CC[C@]12O`, the IC50 came out at 87 nM.

On to `C[C@]12CC[C@H](O[C@H]3O[C@H](CO)[C@@H](O)[C@H](O)[C@H]3O)C[C@H]1CC[C@@H]1[C@@H]2CC[C@]2(C)[C@@H](C3=CC(=O)OC3)CC[C@]12O` (stereo in doubt; 3c), for which the IC50 came out at 129 nM. The value for `C[C@]12CC[C@H](O[C@H]3O[C@H](CO)[C@@H](O)[C@H](O)[C@H]3O)C[C@H]1CC[C@@H]1[C@@H]2CC[C@]2(C)[C@@H](C3=CC(=O)OC3)CC[C@]12O` (stereo in doubt; 4d) was 10.5 nM; that for `C[C@]12CC[C@H](O[C@H]3O[C@H](CO)[C@@H](O)[C@H](O)[C@H]3O)C[C@H]1CC[C@@H]1[C@@H]2CC[C@]2(C)[C@@H](C3=CC(=O)OC3)CC[C@]12O` (stereo in doubt; 3d) was 38.9 nM; that for `C[C@]12CC[C@H](O[C@H]3O[C@H](CO)[C@@H](O)[C@H](O)[C@H]3O)C[C@H]1CC[C@@H]1[C@@H]2CC[C@]2(C)[C@@H](C3=CC(=O)OC3)CC[C@]12O` (stereo in doubt; 4c) was 93.3 nM.

For the compound `C[C@H]1O[C@@H](O[C@H]2CC[C@@]3(C)[C@H](CC[C@@H]4[C@@H]3CC[C@]3(C)[C@@H](C5=CC(=O)OC5)CC[C@]43O)C2)C[C@H](O)[C@@H]1O`, the IC50 is 7.04 nM. With `C[C@@H]1O[C@@H](O[C@H]2CC[C@@]3(C)[C@H](CC[C@@H]4[C@@H]3CC[C@]3(C)[C@@H](C5=CC(=O)OC5)CC[C@]43O)C2)[C@H](O)[C@H](O)[C@H]1O` (stereo in doubt; form 2), the IC50 worked out at 6.79 nM.

For `C[C@]12CC[C@H](O[C@H]3O[C@H](CO)[C@@H](O)[C@H](O)[C@H]3O)C[C@H]1CC[C@@H]1[C@@H]2CC[C@]2(C)[C@@H](C3=CC(=O)OC3)CC[C@]12O` (stereo in doubt; 4b), the IC50 was found to be 16 nM.
